Experimental data reported in US8148373B2, “Compounds” (AstraZeneca AB, priority 2008, dated 2012).

Columns and labels:
[1] = target: T1, human muscarinic acetylcholine M3 receptor (M3-ACh) (Homo sapiens, UniProt P20309); test: Muscarinic 3 Receptor Binding Assay, % inhibition specific binding at 1 μM; conditions: 1 μM compound, % inhibition specific [3H]-NMS binding
T1 construct: expressed in transfected cells; host or cells: CHO-K1 (Chinese Hamster Ovary) cell membranes
Method: The following experimental procedure was used to determine the M3% inhibition at 1 μM of the compounds of Examples 116-263.
Muscarinic 3 Receptor Binding Assay
The activity (% inhibition specific binding) of compounds -on the M3 receptor is determined by competition binding of [^3H]N-methyl scopolamine (NMS) to CHO-K1 (Chinese Hamster Ovary) cell membranes expressing the human muscarinic acetylcholine M3 receptor (M3-ACh) in a scintillation proximity assay (SPA) format.
SPA beads are precoated with membranes and then incubated at 2 mg of beads per well with 1 μM compound of the invention, [^3H]NMS at 0.1 nM, quarter Kd (experimentally determined dissociation constant) and assay buffer (20 mM HEPES pH 7.4 containing 5 mM MgCl2). The assay is conducted in a final volume of 200 μL, in the presence of 1% (v/v) dimethyl sulphoxide (DMSO). Total binding of [^3H]NMS is determined in the absence of competing compound and non-specific binding of [^3H]NMS is determined in the presence of 1 μM atropine. The plates are incubated for 16 hours at room temperature and then read on Wallac Microbeta™ using a normalised ^3H protocol. The compound activity at 1 defined as % inhibition specific [^3H]-NMS binding, is determined.

[2] = target: T2, Adrenergic β2 (H292 cells) (Homo sapiens, UniProt P07550); test: Adrenergic β2 Mediated cAMP Production, single concentration 1 μM; format: cell-based; conditions: NCI-H292, 1 μM compound, percentage of the maximum response generated by 1E-07M formoterol, read-out: β2 (% effect at 1 μM)
T2 construct: endogenous in cells; host or cells: H292 cells
Method: The following experimental procedure was used to measure the beta-2% effect at 1 μM for the compounds of Examples 116-263. Adrenergic β2 Mediated cAMP Production Cell Preparation
H292 cells are grown in 225 cm2 flasks incubator at 37° C., 5% CO2 in RPMI medium containing 10% (v/v) FBS (foetal bovine serum) and 2 mM L-glutamine.
Compounds were prepared by an initial first dilution into DMSO to give 1 mM stock concentration. This was followed by a 1 in 10 dilution of the stock concentration (10 μl stock compound+90 μl DMSO) to give 0.1 mM compound.
A compound addition plate was prepared by making a further 1 in 25 dilution in assay buffer (HBSS solution containing 10 mM HEPES pH7.4 and 5 mM glucose) containing 4% dimethylsulfoxide. The final compound concentration in assay is 1 μM.
Adherent H292 cells are removed from tissue culture flasks by treatment with Accutase™ cell detachment solution for 15 minutes. Flasks are incubated for 15 minutes in a humidified incubator at 37° C., 5% CO2. Detached cells are re-suspended in RPMI media (containing 10% (v/v) FBS and 2 mM L-glutamine) at 0.1×10^6 cells per mL. 10000 cells in 100 μL are added to each well of a tissue-culture-treated 96-well plate and the cells incubated overnight in a humidified incubator at 37° C., 5% CO2. The culture media is removed and cells are washed twice with 100 μL assay buffer and replaced with 50 μL assay buffer (HBSS solution containing 10 mM HEPES pH7.4 and 5 mM glucose). Cells are rested at room temperature for 20 minutes after which time 25 μL of rolipram (1.2 mM made up in assay buffer) is added. Cells are incubated with rolipram for 10 minutes after which time 25 μl test compounds are added and the cells are incubated for 60 minutes at room temperature. The final rolipram concentration in the assay is 300 μM and final vehicle concentration is 1% (v/v) dimethylsulphoxide. The reaction is stopped by removing supernatants, washing once with 100 μL assay buffer and replacing with 50 μL lysis buffer. The cell monolayer is frozen at −80° C. for 30 minutes (or overnight).
AlphaScreen™ cAMP Detection
The concentration of cAMP (cyclic adenosine monophosphate) in the cell lysate is determined using AlphaScreen™ methodology. The frozen cell plate is thawed for 20 minutes on a plate shaker then 10 μL of the cell lysate is transferred to a 96-well white plate. 40 μL of mixed AlphaScreen™ detection beads (containing equal volumes of donor beads (pre-incubated with biotinylated cAMP in the dark for 30 minutes) and acceptor beads is added to each well and the plate incubated at room temperature for 3 hours in the dark. The AlphaScreen™ signal is measured using an EnVision spectrophotometer (Perkin-Elmer Inc.) with the recommended manufacturer's settings. Concentration of cAMP produced per well were calculated with reference to the cAMP standard curve determined in the same experiment and expressed as a percentage of the maximum response generated by 1E-07M formoterol.

[3] = target: T2, Adrenergic β2 (H292 cells); test: Assay for Adrenergic β2 Mediated cAMP Production (concentration response, AlphaScreen cAMP detection); format: cell-based
Method in brief: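 H292 cells plated overnight, pre-treated with rolipram (300 μM final) 10 min, then compound 60 min at room temperature in HBSS/10 mM HEPES pH7.4/5 mM glucose, 1% DMSO. Lysate cAMP read by AlphaScreen against a cAMP standard curve; 4-parameter fit gives pEC50 and intrinsic activity as fraction of formoterol maximum.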

[4] = target: T1, human muscarinic acetylcholine M3 receptor (M3-ACh); test: Muscarinic 3 Receptor Binding Assay ([3H]NMS competition, SPA); conditions: [3H]NMS 0.1 nM, CHO-K1 cell membranes, 16 hours at room temperature; read-out: M3 pIC50 (converted)
Method in brief: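 Competition SPA binding of 0.1 nM [3H]NMS (quarter Kd) to membranes from CHO-K1 cells expressing human M3, in 20 mM HEPES pH 7.4, 5 mM MgCl2, 1% DMSO. Incubated 16 h at room temperature; non-specific binding with 1 µM atropine. pIC50 from 50% reduction of specific binding.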

T1 sequence (P20309 whole entry): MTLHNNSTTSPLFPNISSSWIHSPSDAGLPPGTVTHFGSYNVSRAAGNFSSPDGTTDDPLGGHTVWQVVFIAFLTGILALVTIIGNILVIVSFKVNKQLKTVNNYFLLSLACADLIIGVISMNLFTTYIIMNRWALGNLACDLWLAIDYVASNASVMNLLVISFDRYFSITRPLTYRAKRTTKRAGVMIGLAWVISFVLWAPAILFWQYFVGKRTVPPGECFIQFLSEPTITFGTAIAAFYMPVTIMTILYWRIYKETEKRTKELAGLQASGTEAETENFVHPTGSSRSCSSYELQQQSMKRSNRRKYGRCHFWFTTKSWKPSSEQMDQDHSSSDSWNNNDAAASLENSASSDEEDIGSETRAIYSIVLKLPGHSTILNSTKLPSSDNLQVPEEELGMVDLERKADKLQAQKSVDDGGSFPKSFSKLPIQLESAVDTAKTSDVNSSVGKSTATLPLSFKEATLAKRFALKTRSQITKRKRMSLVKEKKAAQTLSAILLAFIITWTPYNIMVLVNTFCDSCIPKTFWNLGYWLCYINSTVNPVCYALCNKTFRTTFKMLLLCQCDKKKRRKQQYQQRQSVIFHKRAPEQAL
T2 sequence (P07550 whole entry): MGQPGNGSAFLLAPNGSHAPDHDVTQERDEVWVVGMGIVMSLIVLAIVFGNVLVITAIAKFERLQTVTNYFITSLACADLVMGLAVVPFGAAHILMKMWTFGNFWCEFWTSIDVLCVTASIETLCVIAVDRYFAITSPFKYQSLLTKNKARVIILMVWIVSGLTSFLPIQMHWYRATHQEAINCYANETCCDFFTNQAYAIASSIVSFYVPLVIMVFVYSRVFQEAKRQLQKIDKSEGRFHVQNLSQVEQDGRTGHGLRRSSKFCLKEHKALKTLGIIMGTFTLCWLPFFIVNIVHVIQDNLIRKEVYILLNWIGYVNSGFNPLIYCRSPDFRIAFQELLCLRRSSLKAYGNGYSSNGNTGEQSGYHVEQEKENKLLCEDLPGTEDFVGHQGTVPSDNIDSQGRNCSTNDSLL

inhibition at 1 µM [1] [%] | activation at 1 µM [2] [%] | EC50 ([3]; cAMP production, 60 minutes at room temperature, 300 μM rolipram, read-out: β2 pEC50 (converted)) [nM] | β2 Intrinsic activity ([3]; fraction relative to the maximum activity determined for formoterol) | IC50 [4] [nM] | Compound
91 | 82 |  |  |  | CC(C)c1cc(C(=O)N2CCOC3(CCN(CCCCCCCCCNC[C@H](O)c4ccc(O)c5[nH]c(=O)sc45)CC3)C2)no1 [Example 214, (R)-4-hydroxy-7-(1-hydroxy-2-(9-(4-(5-isopropylisoxazole-3-carbonyl)-1-oxa-4,9-diazaspiro[5.5]undecan-9-yl)nonylamino)ethyl)benzo[d]thiazol-2(3H)-one]
53 | 76 |  |  |  | O=C(Cc1cccs1)N1CCOC2(CCN(CCOc3ccc(CNC[C@H](O)c4ccc(O)c5[nH]c(=O)sc45)cc3)CC2)C1 [Example 226, (R)-4-hydroxy-7-(1-hydroxy-2-(4-(2-(4-(2-(thiophen-2-yl)acetyl)-1-oxa-4,9-diazaspiro[5.5]undecan-9-yl)ethoxy)benzylamino)ethyl) benzo[d]thiazol-2(3H)-one]
67 | 98 |  |  |  | Cc1ccn(CC(=O)N2CCOC3(CCN(Cc4cc(F)cc(CCNC[C@H](O)c5ccc(O)c6[nH]c(=O)sc56)c4)CC3)C2)n1 [Example 153, (R)-7-(2-(3-fluoro-5-((4-(2-(3-methyl-1H-pyrazol-1-yl)acetyl)-1-oxa-4,9-diazaspiro[5.5]undecan-9-yl)methyl)phenethylamino)-1-hydroxyethyl)-4-hydroxybenzo[d]thiazol-2(3H)-one]
95 | 89 |  |  |  | Cc1cccc(C(=O)N2CCOC3(CCN(CCCCCCCCCNC[C@H](O)c4ccc(O)c5[nH]c(=O)sc45)CC3)C2)n1 [Example 196, (R)-4-hydroxy-7-(1-hydroxy-2-(9-(4-(6-methylpicolinoyl)-1-oxa-4,9-diazaspiro[5.5]undecan-9-yl)nonylamino)ethyl)benzo[d]thiazol-2(3H)-one]
 |  | 200 | 0.5 | 1 | Cc1nc(C(=O)N2CCOC3(CCN(CCc4ccc(CNC[C@H](O)c5ccc(O)c6[nH]c(=O)sc56)s4)CC3)C2)cs1 [Example 21, (R)-4-Hydroxy-7-(1-hydroxy-2-((5-(2-(4-(2-methylthiazole-4-carbonyl)-1-oxa-4,9-diazaspiro[5.5]undecan-9-yl)ethyl)thiophen-2-yl)methylamino)ethyl)benzo[d]thiazol-2(3H)-one ditrifluoroacetate]

Further lines, the molecule ahead of its results:

Compound | inhibition at 1 µM [1] [%] | activation at 1 µM [2] [%] | EC50 ([3]; cAMP production, 60 minutes at room temperature, 300 μM rolipram, read-out: β2 pEC50 (converted)) [nM] | β2 Intrinsic activity ([3]; fraction relative to the maximum activity determined for formoterol) | IC50 [4] [nM]
O=C(Cc1ccsc1)N1CCOC2(CCN(CCCCCCCCCNC[C@H](O)c3ccc(O)c4[nH]c(=O)sc34)CC2)C1 [Example 192, (R)-4-hydroxy-7-(1-hydroxy-2-(9-(4-(2-(thiophen-3-yl)acetyl)-1-oxa-4,9-diazaspiro[5.5]undecan-9-yl)nonylamino)ethyl)benzo[d]thiazol-2(3H)-one] | 96 | 88 |  |  | 
Cn1cccc1C(=O)N1CCOC2(CCN(CCCCCCCCCNC[C@H](O)c3ccc(O)c4[nH]c(=O)sc34)CC2)C1 [Example 184, (R)-4-hydroxy-7-(1-hydroxy-2-(9-(4-(1-methyl-1H-pyrrole-2-carbonyl)-1-oxa-4,9-diazaspiro[5.5]undecan-9-yl)nonylamino)ethyl)benzo[d]thiazol-2(3H)-one] | 96 | 89 |  |  | 
O=C(c1cnc2ccccc2c1)N1CCOC2(CCN(Cc3cc(F)cc(CCNC[C@H](O)c4ccc(O)c5[nH]c(=O)sc45)c3)CC2)C1 [Example 172, (R)-7-(2-(3-fluoro-5-((4-(quinoline-3-carbonyl)-1-oxa-4,9-diazaspiro[5.5]undecan-9-yl)methyl)phenethylamino)-1-hydroxyethyl)-4-hydroxybenzo[d]thiazol-2(3H)-one] | 19 | 98 |  |  | 
O=C(CCn1cncn1)N1CCOC2(CCN(Cc3cc(F)cc(CCNC[C@H](O)c4ccc(O)c5[nH]c(=O)sc45)c3)CC2)C1 [Example 164, (R)-7-(2-(3-((4-(3-(1H-1,2,4-triazol-1-yl)propanoyl)-1-oxa-4,9-diazaspiro[5.5]undecan-9-yl)methyl)-5-fluorophenethylamino)-1-hydroxyethyl)-4-hydroxybenzo[d]thiazol-2(3H)-one] | 35 | 99 |  |  | 
